Data on 14 compounds can be found in US20250312499A1, “KISSPEPTIN RECEPTOR (KISS1R) TARGETED THERAPEUTICS AND USES THEREOF” (priority 2024, published 2025).

Molecules are shown by their SMILES. Numbered stars: 1 amine (or outer) side, 2 acyl side, 3 side chain; on linkers, the order of the positions; unused ones are H or OH. Square brackets hold non-standard residues; d marks the D form. Peptide text beside a SMILES is read from it. * marks the point of attachment. DOTA = O=C(O)CN1CCN(CC(=O)O)CCN(CC(=O)*)CCN(CC(=O)O)CC1; Ala(9-anthryl) = N[C@@H](Cc1c2ccccc2cc2ccccc12)C(=O)O; Gly(N-(3-F-4-Me-benzyl)) = Cc1ccc(CNCC(=O)*)cc1F; Propanoyl(3-(MeO(CH2CH2O)2)) = COCCOCCOCCC(=O)*; Api(1-amidino) = N=C(N)N1CCC(N)(C(=O)O)CC1; Hydrocinnamoyl(4-Me) = Cc1ccc(CCC(=O)*)cc1; Bip = N[C@@H](Cc1ccc(-c2ccccc2)cc1)C(=O)O; Hydrocinnamoyl(4-I) = O=C(CCc1ccc(I)cc1)*; X3 = CNC(=N)N1CCC(N[*:1])(C(=O)[*:2])CC1; d2Nal = N[C@H](Cc1ccc2ccccc2c1)C(=O)O; Trx = NC[C@H]1CC[C@H](C(=O)O)CC1; 4Pal = N[C@@H](Cc1ccncc1)C(=O)O; d4Pal = N[C@H](Cc1ccncc1)C(=O)O; 4Amb = NCc1ccc(C(=O)O)cc1; Api = NC1(C(=O)O)CCNCC1; PEG2 = NCCOCCOCCC(=O)O; Ahx = NCCCCCC(=O)O; azaGly = NNC(=O)O; Sar = CNCC(=O)O

In this test the target is human kisspeptin receptor (Homo sapiens (Human), UniProt Q969F8). As to the kind of experiment: Human KISS1R binding assay (membrane competition binding). The conditions noted are these: 90 min at room temperature; competition with 0.2 nM [125I]-metastin (45-54); Flp-In T-Rex 293 kisspeptin membranes; metal complexes nonradioactive Ga, In, Lu; read-out: hKiSSR Binding Ki (90 min). A digest of the protocol: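 Membranes from tetracycline-induced (48 h) Flp-In T-Rex 293 cells expressing receptor, 5–10 μg, incubated 90 min at room temperature with 0.2 nM [125I]-metastin (45-54) and competitor (typically 0–10,000 nM) in Tris/Mg/Ca/EGTA/0.1% BSA, pH 7.4. Filtration, washing, counting; Ki by non-linear regression.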
human kisspeptin receptor, sequence (Q969F8 whole entry): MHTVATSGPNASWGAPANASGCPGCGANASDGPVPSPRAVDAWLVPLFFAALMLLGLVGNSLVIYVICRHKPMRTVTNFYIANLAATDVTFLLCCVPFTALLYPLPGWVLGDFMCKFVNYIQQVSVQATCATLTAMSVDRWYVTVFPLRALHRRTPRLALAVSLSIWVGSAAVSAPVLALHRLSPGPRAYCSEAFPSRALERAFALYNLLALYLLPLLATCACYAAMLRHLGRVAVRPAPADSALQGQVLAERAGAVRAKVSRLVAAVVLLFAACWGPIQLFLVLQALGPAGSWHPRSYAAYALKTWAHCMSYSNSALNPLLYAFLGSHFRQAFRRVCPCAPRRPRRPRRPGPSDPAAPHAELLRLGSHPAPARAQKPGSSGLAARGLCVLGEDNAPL

What is called Ki is a measure of affinity in units of concentration, obtained from inhibition or displacement. For the compound `CNC(=N)N1CCC(NC(=O)[C@H](CC(C)C)NC(=O)NNC(=O)[C@H](Cc2ccccc2)NC(=O)CCCCCNC(=O)CN2CCN(CC(=O)O)CCN(CC(=O)O)CCN(CC(=O)O)CC2)(C(=O)N[C@@H](Cc2c[nH]c3ccccc23)C(N)=O)CC1` [Compound 189] ({DOTA-Ahx}-F[azaGly]L[X3]W-NH2), the inhibition constant (Ki) is more than 100 nM. The value for `Cc1ccc(CNCC(=O)N2CCC(NC(=O)[C@H](CC(C)C)NC(=O)NNC(=O)[C@H](Cc3ccccc3)NC(=O)[C@H]3CC[C@H](CNC(=O)CN4CCN(CC(=O)O)CCN(CC(=O)O)CCN(CC(=O)O)CC4)CC3)(C(=O)N[C@@H](Cc3c[nH]c4ccccc34)C(N)=O)CC2)cc1F` [Compound 192] ({DOTA-Trx}-F[azaGly]L[Api](Gly(N-(3-F-4-Me-benzyl)))W-NH2) was less than 10 nM.

For the compound `Cc1ccc(CNCC(=O)N2CCC(NC(=O)[C@H](CC(C)C)NC(=O)NNC(=O)[C@H](Cc3ccccc3)NC(=O)[C@@H](NC(=O)[C@H](CC(N)=O)NC(=O)[C@@H](Cc3ccncc3)NC(=O)[C@@H](Cc3ccc(O)cc3)NC(=O)CNC(=O)CN3CCN(CC(=O)O)CCN(CC(=O)O)CCN(CC(=O)O)CC3)[C@@H](C)O)(C(=O)N[C@@H](Cc3ccc(O)cc3)C(N)=O)CC2)cc1F` [Compound 193] ({DOTA}-G[dY][d4Pal]NTF[azaGly]L[Api](Gly(N-(3-F-4-Me-benzyl)))Y-NH2), the inhibitory constant (Ki) is less than 10 nM. As for `Cc1ccc(CCC(=O)NCCOCCOCCC(=O)N[C@H](Cc2ccc(O)cc2)C(=O)N[C@@H](CCCCNC(=O)CN2CCN(CC(=O)O)CCN(CC(=O)O)CCN(CC(=O)O)CC2)C(=O)N[C@@H](CC(N)=O)C(=O)N[C@H](C(=O)N[C@@H](Cc2ccccc2)C(=O)NNC(=O)N[C@@H](CC(C)C)C(=O)NC2(C(=O)N[C@@H](Cc3c[nH]c4ccccc34)C(N)=O)CCN(C(=N)N)CC2)[C@@H](C)O)cc1` [Compound 195] ({Hydrocinnamoyl(4-Me)-PEG2}-[dY]K(DOTA)NTF[azaGly]L[Api(1-amidino)]W-NH2), the figure is less than 10 nM.

Consider `CC(C)C[C@H](NC(=O)NNC(=O)[C@H](Cc1ccccc1)NC(=O)[C@@H](NC(=O)[C@H](CC(N)=O)NC(=O)[C@H](CCCCNC(=O)CN1CCN(CC(=O)O)CCN(CC(=O)O)CCN(CC(=O)O)CC1)NC(=O)[C@@H](Cc1ccc(O)cc1)NC(=O)CCOCCOCCNC(=O)CCc1ccc(I)cc1)[C@@H](C)O)C(=O)NC1(C(=O)N[C@@H](Cc2c[nH]c3ccccc23)C(N)=O)CCN(C(=N)N)CC1` [Compound 196] ({Hydrocinnamoyl(4-I)-PEG2}-[dY]K(DOTA)NTF[azaGly]L[Api(1-amidino)]W-NH2), for which the inhibitory constant (Ki) is less than 10 nM.

On to `COCCOCCOCCC(=O)N[C@H](Cc1ccc(O)cc1)C(=O)N[C@@H](CCCCNC(=O)CN1CCN(CC(=O)O)CCN(CC(=O)O)CCN(CC(=O)O)CC1)C(=O)N[C@@H](CC(N)=O)C(=O)N[C@H](C(=O)N[C@@H](Cc1ccccc1)C(=O)NNC(=O)N[C@@H](CC(C)C)C(=O)NC1(C(=O)N[C@@H](Cc2c[nH]c3ccccc23)C(N)=O)CCN(C(=N)N)CC1)[C@@H](C)O` [Compound 197] ({Propanoyl(3-(MeO(CH2CH2O)2))}-[dY]K(DOTA)NTF[azaGly]L[Api(1-amidino)]W-NH2), for which the inhibition constant (Ki) was less than 10 nM. For `CC(C)C[C@H](NC(=O)NNC(=O)[C@H](Cc1ccccc1)NC(=O)[C@@H](NC(=O)[C@H](CC(N)=O)NC(=O)[C@H](Cc1ccc(-c2ccccc2)cc1)NC(=O)[C@@H](Cc1ccc(O)cc1)NC(=O)CCCCCNC(=O)CN1CCN(CC(=O)O)CCN(CC(=O)O)CCN(CC(=O)O)CC1)[C@@H](C)O)C(=O)NC1(C(=O)N[C@@H](Cc2c[nH]c3ccccc23)C(N)=O)CCN(C(=N)N)CC1` [Compound 198] ({DOTA-Ahx}-[dY][Bip]NTF[azaGly]L[Api(1-amidino)]W-NH2), the inhibitory constant (Ki) is less than 10 nM. On to `CC(C)C[C@H](NC(=O)[C@H](Cc1ccccc1)NC(=O)[C@H](CC(N)=O)NC(=O)[C@H](CCCNC(=N)N)NC(=O)[C@H](CC(N)=O)NC(=O)[C@@H](NC(=O)CCCCCNC(=O)CN1CCN(CC(=O)O)CCN(CC(=O)O)CCN(CC(=O)O)CC1)[C@@H](C)O)C(=O)NC1(C(=O)N[C@@H](Cc2ccccc2)C(N)=O)CCN(C(=N)N)CC1` [Compound 199] ({DOTA-Ahx}-TNRNFL[Api(1-amidino)]F-NH2), for which the Ki is more than 100 nM.

`CNCC(=O)N1CCC(NC(=O)[C@H](CC(C)C)NC(=O)NNC(=O)[C@H](Cc2ccccc2)NC(=O)[C@@H](NC(=O)[C@H](CC(N)=O)NC(=O)[C@@H](Cc2ccc3ccccc3c2)NC(=O)[C@@H](Cc2ccc(O)cc2)NC(=O)CCCCCNC(=O)CN2CCN(CC(=O)O)CCN(CC(=O)O)CCN(CC(=O)O)CC2)[C@@H](C)O)(C(=O)N[C@@H](Cc2c[nH]c3ccccc23)C(N)=O)CC1` [Compound 201] ({DOTA-Ahx}-[dY][d2Nal]NTF[azaGly]L[Api](Sar)W-NH2): the inhibitory constant (Ki) is less than 10 nM. On to `CNCC(=O)N1CCC(NC(=O)[C@H](CC(C)C)NC(=O)NNC(=O)[C@H](Cc2ccccc2)NC(=O)[C@@H](NC(=O)[C@H](CC(N)=O)NC(=O)[C@H](Cc2c3ccccc3cc3ccccc23)NC(=O)[C@@H](Cc2ccc(O)cc2)NC(=O)CN2CCN(CC(=O)O)CCN(CC(=O)O)CCN(CC(=O)O)CC2)[C@@H](C)O)(C(=O)N[C@@H](Cc2ccncc2)C(N)=O)CC1` [Compound 202] ({DOTA}-[dY][Ala(9-anthryl)]NTF[azaGly]L[Api](Sar)[4Pal]-NH2), for which the Ki lay within 10 to 100 nM. `CSCC[C@H](NC(=O)c1ccc(CNC(=O)CN2CCN(CC(=O)O)CCN(CC(=O)O)CCN(CC(=O)O)CC2)cc1)C(=O)N[C@@H](Cc1ccccc1)C(=O)N[C@@H](CCCCNC(=O)CCCCC(=O)N[C@@H](Cc1ccccc1)C(=O)NNC(=O)N[C@@H](CC(C)C)C(=O)NC1(C(=O)N[C@@H](Cc2c[nH]c3ccccc23)C(N)=O)CCN(C(=O)CNCc2ccc(C)c(F)c2)CC1)C(=O)O` [Compound 203]: the Ki is less than 10 nM. The value for `Cc1ccc(CNCC(=O)N2CCC(NC(=O)[C@H](CC(C)C)n3cc([C@H](Cc4ccccc4)NC(=O)[C@@H](N)CCCCNC(=O)CN4CCN(CC(=O)O)CCN(CC(=O)O)CCN(CC(=O)O)CC4)nn3)(C(=O)N[C@@H](Cc3c[nH]c4ccccc34)C(N)=O)CC2)cc1F` [Compound 204] was more than 100 nM; that for `Cc1ccc(CNCC(=O)N2CCC(NC(=O)[C@H](CC(C)C)NC(=O)NNC(=O)[C@H](Cc3ccccc3)NC(=O)[C@@H](NC(=O)[C@H](CC(N)=O)NC(=O)c3ccc(CNC(=O)CN4CCN(CC(=O)O)CCN(CC(=O)O)CCN(CC(=O)O)CC4)cc3)[C@@H](C)O)(C(=O)N[C@@H](Cc3ccc(O)cc3)C(N)=O)CC2)cc1F` [Compound 205] ({DOTA-4Amb}-NTF[azaGly]L[Api](Gly(N-(3-F-4-Me-benzyl)))Y-NH2) was less than 10 nM. Turning to `Cc1ccc(CNCC(=O)N2CCC(NC(=O)[C@H](CC(C)C)NC(=O)NNC(=O)[C@H](Cc3ccccc3)NC(=O)[C@@H](NC(=O)[C@H](CC(N)=O)NC(=O)[C@@H](CCC(=O)O)NC(=O)c3ccc(CNC(=O)CN4CCN(CC(=O)O)CCN(CC(=O)O)CCN(CC(=O)O)CC4)cc3)[C@@H](C)O)(C(=O)N[C@@H](Cc3ccc(O)cc3)C(N)=O)CC2)cc1F` [Compound 206] ({DOTA-4Amb}-[dE]NTF[azaGly]L[Api](Gly(N-(3-F-4-Me-benzyl)))Y-NH2), the Ki was less than 10 nM.
